The record followed here is US11224627B2, “Method for culturing cells of Acrochaetium moniliforme red algae, method for obtaining an extract of the biomass thereof, and use of same in cosmetics” (SOCIETE D'EXPLOITATION DE PRODUITS POUR LES INDUSTRIES …, priority 2016, dated 2022).

The test system of data set [1] is Human fibroblasts of the dermal follicular papilla. Nature of the data set: Viability measured using WST-8 reagent. In kind it is cell-based. Particulars: 2 μM.
In a further data set the test system is 5-α-reductase enzyme. Nature of the data set: Production of dihydrotestosterone (DHT) from testosterone in a cellular model, revealing 5-α-reductase activity. In kind it is cell-based, human. Conditions: 2 μM. The protocol:
This model is a cellular model, that is more robust than models on purified enzyme.
Human fibroblasts of the dermal follicular papilla (person) were seeded into collagen-coated culture plates in the presence of a specific growth medium. After three days, they were pretreated for 24 hours with the positive reference [Finasteride (F) at 2 μM and 1 μM] and each of the algal extracts to be tested (Table 2). The fibroblasts were then stimulated with testosterone at 0.5 μM before undergoing a post-treatment for 24 hours. Each test was carried out in sextuplicate.
The viability was measured using a WST-8 reagent and the conversion of the testosterone was then evaluated by measuring the intracellular concentration of (DHT). The viability was expressed relative to that of the control without testosterone (control T0). The amount of (DHT) was standardized relative to the viability results and then related to the control condition with testosterone (0.5 μM) control (T1) in order to calculate a percentage effect, and also related to the control conditions without testosterone in order to calculate a percentage protection.

Marks after values point to notes of the source that are not given here.

On to `CC(C)(C)NC(=O)[C@H]1CC[C@H]2[C@@H]3CC[C@H]4NC(=O)C=C[C@]4(C)[C@H]3CC[C@]12C` [F, Finasteride], for which the “WST-8 OD (AU)” value in data set [1] (fibroblasts stimulated with testosterone 0.5 μM, 24 h pre- and 24 h post-treatment) is 2.19 +/− 0.27^(a) AU. In data set [1] (relative to control without testosterone (T0)), the “WST-8 Viability” value is listed as 93%^(a). Further, the “DHT Standardized concentration (pg/ml/AU)” value in the data set with 5-α-reductase enzyme (DHT standardized relative to viability (WST-8 OD)) is reported as 5.68 +/− 0.91^(a) pg/ml/AU. For the same compound, in the data set with 5-α-reductase enzyme (intracellular DHT, testosterone 0.5 μM), the “DHT Concentration (pg/ml)” value is on record as 12.38 +/− 2.35^(a) pg/ml. Further, the “DHT Restoration” value in the data set on 5-α-reductase enzyme (related to control without testosterone (T0 = 100%, T1 = 0%)) was 46%*. Further, the “DHT Effect” value with 5-α-reductase enzyme (relative to control with testosterone 0.5 μM (T1)) is on record as −28%*.
